# Assay results: publication PMC8600648 (ACS Omega, 2021)
# Biological target: TMV-CP (tobacco mosaic virus coat protein) (Tobacco mosaic virus (vulgare), UniProt P69687)
# Experiment: microscale thermophoresis
# Type: binding
# Chain of TMV-CP (tobacco mosaic virus coat protein) (P69687 2-159 limits assumed): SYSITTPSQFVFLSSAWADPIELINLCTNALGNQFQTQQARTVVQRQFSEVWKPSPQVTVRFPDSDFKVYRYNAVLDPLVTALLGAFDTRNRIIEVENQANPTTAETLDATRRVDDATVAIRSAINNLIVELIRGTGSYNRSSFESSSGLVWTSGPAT
smiles,measurement,value
"O=c1c(O)c(-c2cc(O)c(O)c(O)c2)oc2cc(O)cc(O)c12 [myricetin, 3,5,7-trihydroxy-2-(3′,4′,5′-trihydroxyphenyl)-4H-chromen-4-one]",Kd,62.2 ± 22.2 µM
